The nature of series [1]: Particle size and polydispersity index of nanoparticle compositions (Zetasizer Nano ZS). In kind it is physicochemical. As to the method:
A Zetasizer Nano ZS (Malvern Instruments Ltd, Malvern, Worcestershire, UK) can be used to determine the particle size, the polydispersity index (PDI) and the zeta potential of the nanoparticle compositions in 1×PBS in determining particle size and 15 mM PBS in determining zeta potential.

Series [2] can be described thus: pKa of nanoparticle compositions. In kind it is physicochemical.
Series [3] in a line: Encapsulation efficiency of RNA (QUANT-IT RIBOGREEN RNA assay). In kind it is physicochemical. As to conditions: for encapsulation efficiency, rank within the named table (in words): comparison amongst compositions. The procedure:
For nanoparticle compositions including an RNA, a QUANT-IT™ RIBOGREEN® RNA assay (Invitrogen Corporation Carlsbad, Calif.) can be used to evaluate the encapsulation of an RNA by the nanoparticle composition. The samples are diluted to a concentration of approximately 5 μg/mL in a TE buffer solution (10 mM Tris-HCl, 1 mM EDTA, pH 7.5). 50 μL of the diluted samples are transferred to a polystyrene 96 well plate and either 50 μL of TE buffer or 50 μL of a 2% Triton X-100 solution is added to the wells. The plate is incubated at a temperature of 37° C. for 15 minutes. The RIBOGREEN® reagent is diluted 1:100 in TE buffer, and 100 μL of this solution is added to each well. The fluorescence intensity can be measured using a fluorescence plate reader (Wallac Victor 1420 Multilablel Counter; Perkin Elmer, Waltham, Mass.) at an excitation wavelength of, for example, about 480 nm and an emission wavelength of, for example, about 520 nm. The fluorescence values of the reagent blank are subtracted from that of each of the samples and the percentage of free RNA is determined by dividing the fluorescence intensity of the intact sample (without addition of Triton X-100) by the fluorescence value of the disrupted sample (caused by the addition of Triton X-100).

Series [4] deals with modified luciferase expression. Kind of series: Expression of Luc in different organs (liver, lung, spleen, femur) 6 hours after intravenous administration. The conditions noted are these: i.v., 0.5 mpk. In kind it is in vivo. The procedure:
The efficacy of the nanoparticle compositions presented in Tables 1, 1a, 17-1, 19-1, 20-1 and 21-1 was further evaluated by measuring the expression of modified luciferase in the liver, lung, spleen, and femur upon administration of a given composition. Formulations were administered intravenously to mice (n=3) at a dosage of 0.5 mpk and bioluminescence measured after 6 hours. The standard MC3 formulation and a PBS control were also tested.

In series [5] the test system is luciferase (Luc) mRNA expression. Kind of series: Expression of Luc induced by sample formulations, whole-body bioluminescence after intravenous administration. In kind it is in vivo. As to conditions: mice, i.v., 0.5 mg/kg. As to the method: In order to monitor how effectively various nanoparticle compositions deliver therapeutic and/or prophylactic agents to targeted cells, different nanoparticle compositions including a particular therapeutic and/or prophylactic agent (for example, a modified or naturally occurring RNA such as an mRNA) are prepared and administered to rodent populations. Mice are intravenously, intramuscularly, intraarterially, or intratumorally administered a single dose including a nanoparticle composition with a formulation such as those provided in Table 1. In some instances, mice may be made to inhale doses. Dose sizes may range from 0.001 mg/kg to 10 mg/kg, where 10 mg/kg describes a dose including 10 mg of a therapeutic and/or prophylactic agent in a nanoparticle composition for each 1 kg of body mass of the mouse. A control composition including PBS may also be employed.
Upon administration of nanoparticle compositions to mice, dose delivery profiles, dose responses, and toxicity of particular formulations and doses thereof can be measured by enzyme-linked immunosorbent assays (ELISA), bioluminescent imaging, or other methods. For nanoparticle compositions including mRNA, time courses of protein expression can also be evaluated. Samples collected from the rodents for evaluation may include blood, sera, and tissue (for example, muscle tissue from the site of an intramuscular injection and internal tissue); sample collection may involve sacrifice of the animals.
The efficacy of the nanoparticle compositions presented in Tables 1, 1a, 17-1, 19-1, 20-1 and 21-1 was evaluated with a bioluminescence study. Formulations were administered intravenously to mice (n=6) at a dosage of 0.5 mg/kg (mpk) and bioluminescence measured at 3, 6, and 24 hour time points. The standard MC3 formulation and a PBS control were evaluated for comparison.

The mark [6] stands for this setting: Table 1, rows without footnote mark (lipid:DOPE:cholesterol:PEG-DMG 40:20:38.5:1.5, Luc mRNA; MC3 standard formulation).
Where [7] appears, read: Table 1, rows without footnote mark.
Setting [8] is: Table 20-1, rows without footnote mark.
Setting [9] is: Table 1, * lipid:DSPC:Chol:PEG-DMG 50:10:38.5:1.5.

Regarding `CCCCC/C=C\C/C=C\CCCCCCCCC1(CCCCCCCC/C=C\C/C=C\CCCCC)CCC(OC(=O)CCCN(C)C)C1` (centres unmarked) [Compound 21-4, 3,3-Di((9Z,12Z)-octadeca-9,12-dien-1-yl)cyclopentyl 4-(dimethylamino)butanoate], in series [1] (Table 21-1), the PDI turned out to be 0.193 and the “Size (nm)” value turned out to be 94.9 nm. The compound further registered a pKa in series [2] (Table 21-1) of 7.01. Besides, the “EE (%)” value in series [3] (Table 21-1) was 98.8%. Besides, the “Total Flux Liver” value in series [4] (Table 21-3, mice, liver) is recorded as 9.89E+07. Besides, in series [4] (Table 21-3, mice), the “Total Flux Lung” value was 2.13E+05 and the “Total Flux Spleen” value amounted to 1.27E+07. Moreover, the “total flux in organs, rank or organ comparison (in words)” value in series [4] (mice, each organ or overall) was “lowest expression in each organ”. In series [5] (Table 21-2), the “Total Flux 3 hours” value is reported as 1.15E+09, the “Total Flux 6 hours” value came to 1.26E+09 and the “Total Flux 24 hours” value turned out to be 1.26E+09.

In the case of `CCCCCCCCCCCCN(CCO)CCCCCCCCCCCC` [Compound 17-11, 2-(Didodecylamino)ethan-1-ol], in series [1] (Table 17-1), the PDI turned out to be 0.24 and the “Size (nm)” value was determined as 87.3 nm. In addition, in series [2] (Table 17-1), the pKa amounted to 6.76. Moreover, the “EE (%)” value in series [3] (Table 17-1) is listed as 88.7%. The “Total Flux Liver” value in series [4] (Table 17-3, mice, liver) is recorded as 5.06E+05. Moreover, in series [4] (Table 17-3, mice), the “Total Flux Lung” value is recorded as 1.20E+04 and the “Total Flux Spleen” value worked out at 3.37E+05. Further, in series [5] (Table 17-2), the “Total Flux 3 hours” value came to 1.86E+06, the “Total Flux 6 hours” value is 2.82E+06 and the “Total Flux 24 hours” value worked out at 2.70E+05.

Regarding `CCCCCCCCCCCCN(CCCCCCCCCCCC)CCN1CCN(CCN(CCCCCCCCCCCC)C(=O)CN(CCCCCCCCCCCC)CCCCCCCCCCCC)CC1` [Compound 1, 2-(Didodecylamino)-N-(2-(4-(2-(didodecylamino)ethyl)piperazin-1-yl)ethyl)-N-dodecylacetamide], in series [1] (setting [6]), the “Size (nm)” value worked out at 203.2 nm. Also, the “particle size, rank within the named table (in words)” value in series [1] (comparison amongst compositions) is on record as “largest particles”. In series [2] (setting [7]), this compound registered a pKa of 5.95. In series [3] (setting [7]), the “EE (%)” value is recorded as 46.2%. Moreover, the “encapsulation efficiency, rank within the named table (in words)” value in series [3] is recorded as “lowest”.

Turning to `CCCCCCCC/C=C\CCCCCCCCN(CCCCCCCC/C=C\CCCCCCCC)CCN(CCCCCCCC/C=C\CCCCCCCC)CCN1CCN(CCN(CCCCCCCC/C=C\CCCCCCCC)CCCCCCCC/C=C\CCCCCCCC)CC1` [Formula IV, N^1-(2-(4-(2-(Di((Z)-octadec-9-en-1-yl)amino)ethyl)piperazin-1-yl)ethyl)-N^1,N^2,N^2-tri((Z)-octadec-9-en-1-yl)ethane-1,2-diamine], the “Size (nm)” value in series [1] (setting [6]) is 94.2 nm. Further, in series [2] (setting [7]), the pKa is 6.25. In series [3] (setting [7]), the “EE (%)” value is given as 97.6%. The “Total Flux Liver” value in series [4] (Table 3, mice, liver) is listed as 9.15E+08. In series [4] (Table 3, mice), the “Total Flux Spleen” value is 6.15E+08.

In the case of `CCCCC/C=C\C/C=C\CCCCCCCC1C(CCCCCCC/C=C\C/C=C\CCCCC)C1CN(C)C` (centres unmarked) [Compound 21-6, 1-(2,3-Di((8Z,11Z)-heptadeca-8,11-dien-1-yl)cyclopropyl)-N,N-dimethylmethanamine], in series [1] (Table 21-1), the PDI was determined as 0.110 and the “Size (nm)” value is reported as 86.8 nm. The same compound registered a pKa in series [2] (Table 21-1) of 6.99. The “EE (%)” value in series [3] (Table 21-1) came to 98.9%. Moreover, the “Total Flux Liver” value in series [4] (Table 21-3, mice, liver) was 4.79E+08. In addition, in series [4] (Table 21-3, mice), the “Total Flux Lung” value was found to be 2.09E+06 and the “Total Flux Spleen” value is on record as 1.94E+07. Further, in series [5] (Table 21-2), the “Total Flux 3 hours” value is 2.92E+09, the “Total Flux 6 hours” value turned out to be 4.54E+09 and the “Total Flux 24 hours” value turned out to be 1.40E+08.

Turning to `CCCCCCCCCCCCN(CCCCCCCCCCCC)CCN1CCNCC1` [Compound 19-2, N-Dodecyl-N-(2-(piperazin-1-yl)ethyl)dodecan-1-amine], in series [1] (Table 19-1), the PDI was determined as 0.239 and the “Size (nm)” value turned out to be 72.0 nm. The compound further gave a pKa in series [2] (Table 19-1) of 7.32. The “EE (%)” value in series [3] (Table 19-1) is on record as 98.8%. Moreover, in series [4] (Table 19-3, mice, liver), the “Total Flux Liver” value is recorded as 5.73E+04. In addition, in series [4] (Table 19-3, mice), the “Total Flux Lung” value is 2.33E+04 and the “Total Flux Spleen” value came out at 3.56E+04. Moreover, the “total flux in the liver, rank within the named table (in words)” value in series [4] (mice, liver) is on record as “lowest total flux in the liver”. For the same compound, in series [5] (Table 19-2), the “Total Flux 3 hours” value worked out at 1.96E+05, the “Total Flux 6 hours” value is reported as 3.51E+05 and the “Total Flux 24 hours” value came to 2.29E+05. Besides, the “total flux / Luc expression, rank within the named table (in words)” value in series [5] (each time point) was “lowest total flux”.

Regarding `CCCCCCCCCCCCN(CCO)CCN(CCCCCCCCCCCC)CCCCCCCCCCCC` [Compound 20-20, 2-((2-(Didodecylamino)ethyl)(dodecyl)amino)ethan-1-ol], in series [1] (setting [8]), the PDI was 0.159 and the “Size (nm)” value was found to be 86.8 nm. In series [2] (setting [8]), this compound came in with a pKa of 6.41. Moreover, the “EE (%)” value in series [3] (setting [8]) worked out at 95.2%. In addition, in series [4] (Table 20-3, mice, liver), the “Total Flux Liver” value was 8.92E+08. In series [4] (Table 20-3, mice), the “Total Flux Lung” value amounted to 1.12E+06 and the “Total Flux Spleen” value was 1.39E+07. Further, in series [5] (Table 20-2), the “Total Flux 3 hours” value is 4.56E+09, the “Total Flux 6 hours” value stood at 3.27E+09 and the “Total Flux 24 hours” value was 3.56E+08.

As for `CCCCC/C=C\CCCCCN(CCCCCCCCCCCC)CCN1CCN(CCN(CCCCCCCCCCCC)CCN(CCCCCCCCCCCC)CCCCCCCCCCCC)CC1` [Compound 24, (Z)—N^1-(2-(4-(2-(Dodec-6-en-1-yl(dodecyl)amino)ethyl)piperazin-1-yl)ethyl)-N^1,N^2,N^2-tridodecylethane-1,2-diamine], the “Size (nm)” value in series [1] (Table 1, * formulated with lipid:DSPC:Chol:PEG-DMG 50:10:38.5:1.5) was 110.4 nm. This compound came in with a PDI in series [1] (setting [9]) of 0.131. In addition, the pKa in series [2] (setting [9]) is on record as 6.01. Moreover, in series [3] (setting [9]), the “EE (%)” value is recorded as 36.4%. The “encapsulation efficiency, rank within the named table (in words)” value in series [3] was “lowest”.

Broadly, the pKa is the negative logarithm of the acid dissociation constant. A high value points to a weaker acid or stronger base.

For the origin of these results see patent US10195156B2, “Compounds and compositions for intracellular delivery of agents” (ModernaTX, Inc., priority 2015, dated 2019).
